Measurements reported in patent publication US20240262795A1, “PYRAZINE COMPOUNDS AS INHIBITORS OF FLT3” (Biomea Fusion, Inc., priority 2021, published 2024).

How the values were obtained:
MV-4-11 = assay: Proliferation inhibition, CellTiter-Glo, MV-4-11; format: cell-based, human; conditions: Homo sapiens, MV4-11, 96 h; MV-4:11 cells, IC50 (4 days), CellTiter-Glo; read-out: MV-4:11 IC50
Outline: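 About 10,000 cells per well in RPMI-1640 with 10% FBS. Compounds added 2 h after seeding at eight concentrations in duplicate (0.2% DMSO as 100% proliferation), then incubated ~96 h at 37° C, 5% CO2. ATP measured by CellTiter-Glo luminescence; IC50 from four-parameter logistic fit.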

FLT3-ITD = target: T1, FLT3-ITD (Homo sapiens, UniProt P36888, DUP595-601); assay: FLT3-ITD Lance Ultra TR-FRET kinase assay; format: biochemical
T1 construct: purchased Signalchem F-12-12CG-10
T1 sequence (P36888 with tags, fused parts or gaps DUP595-601 limits assumed): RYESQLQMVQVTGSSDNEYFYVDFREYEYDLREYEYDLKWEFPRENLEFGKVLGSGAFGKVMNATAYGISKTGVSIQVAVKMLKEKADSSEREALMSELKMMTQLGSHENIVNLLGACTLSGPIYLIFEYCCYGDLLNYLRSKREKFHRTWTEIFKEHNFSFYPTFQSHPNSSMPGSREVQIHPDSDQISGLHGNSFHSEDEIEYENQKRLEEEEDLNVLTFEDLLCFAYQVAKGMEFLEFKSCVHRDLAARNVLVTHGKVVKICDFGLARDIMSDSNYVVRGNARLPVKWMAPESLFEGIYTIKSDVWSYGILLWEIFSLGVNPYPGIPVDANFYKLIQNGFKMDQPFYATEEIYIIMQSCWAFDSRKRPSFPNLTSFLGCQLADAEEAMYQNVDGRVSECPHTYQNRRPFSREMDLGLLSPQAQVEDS
Outline: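 Lance Ultra TR-FRET with 50 nM ULight-JAK-1 (Tyr1023) peptide, Eu-anti-phosphotyrosine (PT66) detection, in HEPES pH 7.5 buffer at 23° C, 30 min enzyme/compound preincubation. WT: 0.5 nM enzyme, 100 μM ATP, 30 min; ITD: 0.0625 nM, 50 μM ATP, 60 min. IC50 by four-parameter fit of 11-point 3× dilutions.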

Row | SMILES | IC50 (MV-4-11) [nM] | IC50 (FLT3-ITD) [nM]
1 | CCc1nc(C(N)=O)c(Nc2cccc(CCNC(=O)[C@H](C)N(C)C(=O)/C=C/CN(C)C)c2)nc1N(C)C(C)C [Compound 204, (S,E)-3-((3-(2-(2-(4-(dimethylamino)-N-methylbut-2-enamido)propanamido)ethyl)phenyl)amino)-6-ethyl-5-(isopropyl(methyl)amino)pyrazine-2-carboxamide] | < 1 | 0.101 to 0.2
2 | CCc1nc(C(N)=O)c(Nc2cccc(CCNC(=O)[C@H](C)N(C)C(=O)/C=C/CN(C)C)c2)nc1NC(C)C [Compound 205, (S,E)-3-((3-(2-(2-(4-(dimethylamino)-N-methylbut-2-enamido)propanamido)ethyl)phenyl)amino)-6-ethyl-5-(isopropylamino)pyrazine-2-carboxamide] | < 1 | 0.101 to 0.2
3 | Cc1nc(C(N)=O)c(Nc2cccc(CCNC(=O)[C@H](C)N(C)C(=O)/C=C/CN(C)C)c2)nc1N(C)C(C)C [Compound 232, (S, E)-3-((3-(2-(2-(4-(dimethylamino)-N-methylbut-2-enamido)propanamido)ethyl)phenyl)amino)-5-(isopropyl (methyl)amino)-6-methylpyrazine-2-carboxamide] | < 1 | 0.501 to 1
4 | Cc1nc(C(N)=O)c(Nc2cccc(CCNC(=O)CN(C)C(=O)/C=C/CN(C)C)c2)nc1N(C)C(C)C [Compound 250, (E)-3-((3-(2-(2-(4-(dimethylamino)-N-methylbut-2-enamido)acetamido)ethyl)phenyl)amino)-5-(isopropyl(methyl)amino)-6-methylpyrazine-2-carboxamide] | < 1 | 0.201 to 0.5
5 | CCc1nc(C(N)=O)c(Nc2cccc(CCNC(=O)CN(C)C(=O)/C=C/CN(C)C)c2)nc1N(C)CC [Compound 252, (E)-3-((3-(2-(2-(4-(dimethylamino)-N-methylbut-2-enamido)acetamido)ethyl)phenyl)amino)-6-ethyl-5-(ethyl (methyl)amino) pyrazine-2-carboxamide] | < 1 | 0.101 to 0.2
6 | CCc1nc(C(N)=O)c(Nc2cccc(CCNC(=O)[C@H](C)N(C)C(=O)/C=C/CNC)c2)nc1N(C)C(C)C [Compound 307, (S,E)-6-ethyl-5-(isopropyl(methyl)amino)-3-((3-(2-(2-(N-methyl-4-(methylamino)but-2-enamido)propanamido)ethyl)phenyl)amino)pyrazine-2-carboxamide] | < 1 | 0.201 to 0.5
7 | CCc1nc(C(N)=O)c(Nc2ccnc(CCNC(=O)[C@H](C)N(C)C(=O)/C=C/CN(C)C)c2)nc1C1CC1 [Compound 310, (S,E)-5-cyclopropyl-3-((2-(2-(2-(4-(dimethylamino)-N-methylbut-2-enamido)propanamido)ethyl)pyridin-4-yl)amino)-6-ethylpyrazine-2-carboxamide] | < 1 | 0.501 to 1
8 | CCc1nc(C(N)=O)c(Nc2cccc(CCNC(=O)CN(C)C(=O)/C=C/CN3CCC3)c2)nc1N(C)CC [Compound 516A, (E)-3-((3-(2-(2-(4-(azetidin-1-yl)-N-methylbut-2-enamido)acetamido)ethyl)phenyl)amino)-6-ethyl-5-(ethyl(methyl)amino) pyrazine-2-carboxamide] | < 1 | 0.101 to 0.2
9 | CCc1nc(C(N)=O)c(Nc2ccnc(CCNC(=O)[C@H](C)N(C)C(=O)/C=C/CN(C)C)c2)nc1N(C)C(C)C [Compound 605, (S, E)-3-((2-(2-(2-(4-(dimethylamino)-N-methylbut-2-enamido)propanamido)ethyl)pyridin-4-yl)amino)-6-ethyl-5-(isopropyl (methyl)amino) pyrazine-2-carboxamide] | < 1 | 0.201 to 0.5
10 | CCc1nc(C(N)=O)c(Nc2ccc(N3CCC(N4CCN(C)CC4)CC3)c(OC)c2)nc1NC1CCOCC1 [Gilteritinib, gilteritinib, reference compound] | 1 to 10 | 

Other lines, results leading:

Row | IC50 (MV-4-11) [nM] | IC50 (FLT3-ITD) [nM] | SMILES
11 | < 1 |  | CCc1nc(C(N)=O)c(Nc2cccc(CCNC(=O)CN(C)C(=O)/C=C/CN(C)C)c2)nc1C1CC1 [Compound 219, (E)-5-cyclopropyl-3-((3-(2-(2-(4-(dimethylamino)-N-methylbut-2-enamido)acetamido)ethyl)phenyl)amino)-6-ethylpyrazine-2-carboxamide]
12 | < 1 |  | CCc1nc(C(N)=O)c(Nc2cccc([C@@H](C)CNC(=O)CN(C)C(=O)/C=C/CN(C)C)c2)nc1C1CC1 [Compound 504, (R,E)-5-cyclopropyl-3-((3-(1-(2-(4-(dimethylamino)-N-methylbut-2-enamido)acetamido)propan-2-yl)phenyl)amino)-6-ethylpyrazine-2-carboxamide]
13 | 1 to 10 | 0.201 to 0.5 | CCc1nc(C(N)=O)c(Nc2cccc([C@@H](C)CNC(=O)CN(C)C(=O)/C=C/CN3CCC3)c2)nc1C1CC1 [Compound 506, (R,E)-3-((3-(1-(2-(4-(azetidin-1-yl)-N-methylbut-2-enamido)acetamido)propan-2-yl)phenyl)amino)-5-cyclopropyl-6-ethylpyrazine-2-carboxamide]
14 | 1 to 10 | 0.201 to 0.5 | CCCc1nc(Nc2cccc([C@@H](C)CNC(=O)CN(C)C(=O)/C=C/CN3CCC3)c2)c(C(N)=O)nc1CC [Compound 507, (R,E)-3-((3-(1-(2-(4-(azetidin-1-yl)-N-methylbut-2-enamido)acetamido)propan-2-yl)phenyl)amino)-6-ethyl-5-propylpyrazine-2-carboxamide]
15 | > 500 | 0.501 to 1 | CCc1nc(Nc2cccc([C@@H](C)CNC(=O)CN(C)C(=O)/C=C/CN3CCC3)c2)c(C(N)=O)nc1CC [Compound 508, (R, E)-3-((3-(1-(2-(4-(azetidin-1-yl)-N-methylbut-2-enamido)acetamido)propan-2-yl)phenyl)amino)-5,6-diethylpyrazine-2-carboxamide]
16 | 1 to 10 | 0.101 to 0.2 | CCc1nc(C(N)=O)c(Nc2cc(F)cc(CCNC(=O)CN(C)C(=O)/C=C/CN3CCC3)c2)nc1C1CC1 [Compound 516, (E)-3-((3-(2-(2-(4-(azetidin-1-yl)-N-methylbut-2-enamido)acetamido)ethyl)-5-fluorophenyl)amino)-5-cyclopropyl-6-ethylpyrazine-2-carboxamide]
17 | < 1 | 0.101 to 0.2 | CCc1nc(C(N)=O)c(Nc2cccc([C@@H](C)CNC(=O)CN(C)C(=O)/C=C/CN3CCC3)c2)nc1N(C)CC [Compound 518, (R,E)-3-((3-(1-(2-(4-(azetidin-1-yl)-N-methylbut-2-enamido)acetamido)propan-2-yl)phenyl)amino)-6-ethyl-5-(ethyl(methyl)amino)pyrazine-2-carboxamide]
18 | < 1 | 0.201 to 0.5 | CCOc1nc(Nc2cccc(CCNC(=O)CN(C)C(=O)/C=C/CN3CCC3)c2)c(C(N)=O)nc1CC [Compound 602, (E)-3-((3-(2-(2-(4-(azetidin-1-yl)-N-methylbut-2-enamido)acetamido)ethyl)phenyl)amino)-5-ethoxy-6-ethylpyrazine-2-carboxamide]
19 | < 1 | 0.201 to 0.5 | CCc1nc(C(N)=O)c(Nc2cccc(CCNC(=O)CN(C)C(=O)/C=C/CN3CCC3)c2)nc1OC(C)C [Compound 603, (E)-3-((3-(2-(2-(4-(azetidin-1-yl)-N-methylbut-2-enamido)acetamido)ethyl)phenyl)amino)-6-ethyl-5-isopropoxypyrazine-2-carboxamide]
